Experimental data as given in US10030016B2 (Sunesis Pharmaceuticals, Inc., priority 2009, dated 2018).

Columns and labels:
PDK1 = PDK1 (Homo sapiens (Human), UniProt O15530); experiment: PDK1 kinase assay (coupled PDK1/AKT/FAM-crosstide assay, IMAP fluorescence polarization); assay type: biochemical; conditions: inhibition of phospo-PDK1 in vitro
Method in brief: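 PDK1 activity is measured indirectly through activation of a PIFtide-fused AKT2 construct that phosphorylates FAM-crosstide (100 nM). The reaction uses 0.75 nM PDK1, 40 μM ATP, 30 min, 25° C, with IMAP polarization detection.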

[1] = test system: phospho-akt (Thr308) in PC-3 cells; experiment: Inhibition of phospho-akt (Thr308) in PC-3 cells, MSD phospho-akt 308 ELISA kit; assay type: cell-based; conditions: Homo sapiens; inhibition of P308 Akt in PC-3 cells, 2 hours, no serum, MSD; read-out: EC50
Method in brief: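 Serum-free 2 h compound exposure of overnight-seeded PC-3 cells, threefold dilution series; lysates analysed on blocked MSD plates (3% BSA) for Thr308-phosphorylated Akt, normalised between DMSO and 5 μM wortmannin wells.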

PDK1, sequence (O15530 51-359): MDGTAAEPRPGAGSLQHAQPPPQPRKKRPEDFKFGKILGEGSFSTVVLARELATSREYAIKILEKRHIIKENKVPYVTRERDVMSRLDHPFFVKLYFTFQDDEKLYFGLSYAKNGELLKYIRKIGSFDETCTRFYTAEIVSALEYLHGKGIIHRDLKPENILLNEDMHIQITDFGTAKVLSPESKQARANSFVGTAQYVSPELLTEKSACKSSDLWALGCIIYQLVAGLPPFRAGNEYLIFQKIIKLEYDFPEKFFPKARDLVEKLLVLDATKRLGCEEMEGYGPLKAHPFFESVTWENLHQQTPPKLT

| IC50 (PDK1) [µM] | EC50 [1] [µM] | Structure (SMILES) |
| --- | --- | --- |
| > 5 | > 10 | CC(C)Oc1cc(CNc2ncccc2C(=O)N(C)C2CCCCC2)cc(-c2c[nH]c3ncc(C(=O)NC4CC4)cc23)c1 [Example 4.1.6, 3-{3-[({3-[cyclohexyl(methyl)carbamoyl]pyridin-2-yl}amino)methyl]-5-(propan-2-yloxy)phenyl}-N-cyclopropyl-1H-pyrrolo[2,3-b]pyridine-5-carboxamide] |
| 1 to 5 | 1 to 10 | CC(C)Oc1cc(CNc2ncccc2C(=O)NC2CC2)cc(-c2c[nH]c3ncc(C(=O)NC4CC4)cc23)c1 [Example 4.1.7, N-cyclopropyl-3-[3-({[3-(cyclopropylcarbamoyl)pyridin-2-yl]amino}methyl)-5-(propan-2-yloxy)phenyl]-1H-pyrrolo[2,3-b] pyridine-5-carboxamide] |
| > 5 | 1 to 10 | CC(C)Oc1cc(CNc2ncccc2C(=O)N(C)c2cccc(F)c2)cc(-c2c[nH]c3ncc(C(=O)NC4CC4)cc23)c1 [Example 4.1.8, N-cyclopropyl-3-{3-[({3-[(3-fluorophenyl)(methyl)carbamoyl]pyridin-2-yl}amino)methyl]-5-(propan-2-yloxy)phenyl}-1H-pyrrolo[2,3-b] pyridine-5-carboxamide] |
| > 5 | 1 to 10 | CC(C)Oc1cc(CNc2ncccc2C(=O)N(C)c2ccc(F)cc2)cc(-c2c[nH]c3ncc(C(=O)NC4CC4)cc23)c1 [Example 4.1.9, N-cyclopropyl-3-{3-[({3-[(4-fluorophenyl)(methyl)carbamoyl]pyridin-2-yl}amino)methyl]-5-(propan-2-yloxy)phenyl}-1H-pyrrolo[2,3-b] pyridine-5-carboxamide] |
| > 5 | 1 to 10 | CC(C)Oc1cc(CNc2ncccc2C(=O)N(C)C2CC2)cc(-c2c[nH]c3ncc(C(=O)NC4CC4)cc23)c1 [Example 4.1.10, N-cyclopropyl-3-{3-[({3-[cyclopropyl(methyl)carbamoyl]pyridin-2-yl}amino)methyl]-5-(propan-2-yloxy)phenyl}-1H-pyrrolo[2,3-b] pyridine-5-carboxamide] |
| 0.1 to 1 | 1 to 10 | CC(C)Oc1cc(CNc2ncccc2C(=O)NCC2CC2)cc(-c2c[nH]c3ncc(C(=O)NC4CC4)cc23)c1 [Example 4.1.11, N-cyclopropyl-3-{3-[({3-[(cyclopropylmethyl)carbamoyl]pyridin-2-yl}amino)methyl]-5-(propan-2-yloxy)phenyl}-1H-pyrrolo[2,3-b] pyridine-5-carboxamide] |
| 1 to 5 | > 10 | CC(C)Oc1cc(CNc2ncccc2C(=O)Nc2c(F)cccc2F)cc(-c2c[nH]c3ncc(C(=O)NC4CC4)cc23)c1 [Example 4.1.12, N-cyclopropyl-3-{3-[({3-[(2,6-difluorophenyl)carbamoyl]pyridin-2-yl}amino)methyl]-5-(propan-2-yloxy)phenyl}-1H-pyrrolo[2,3-b] pyridine-5-carboxamide] |
| < 0.1 | 1 to 10 | CC(C)Oc1cc(CNc2ncccc2C(=O)N[C@@H](C)c2ccccc2)cc(-c2c[nH]c3ncc(C(=O)NC4CC4)cc23)c1 [Example 4.1.13, N-cyclopropyl-3-[3-{[(3-{[(1S)-1-phenylethyl]carbamoyl}pyridin-2-yl)amino]methyl}-5-(propan-2-yloxy)phenyl]-1H-pyrrolo[2,3-b] pyridine-5-carboxamide] |
| < 0.1 | 1 to 10 | Cc1ccc(CNC(=O)c2cccnc2NCc2cc(OC(C)C)cc(-c3c[nH]c4ncc(C(=O)NC5CC5)cc34)c2)o1 [Example 4.1.14, N-cyclopropyl-3-[3-{[(3-{[(5-methylfuran-2-yl)methyl]carbamoyl}pyridin-2-yl)amino]methyl}-5-(propan-2-yloxy)phenyl]-1H-pyrrolo[2,3-b] pyridine-5-carboxamide] |
| > 5 | 1 to 10 | CC(C)Oc1cc(CNc2ncccc2C(=O)NC(C)(C)C)cc(-c2c[nH]c3ncc(C(=O)NC4CC4)cc23)c1 [Example 4.1.15, 3-[3-({[(3-tert-butylcarbamoyl)pyridin-2-yl]amino}methyl)-5-(propan-2-yloxy)phenyl]-N-cyclopropyl-1H-pyrrolo[2,3-b] pyridine-5-carboxamide] |
| 0.1 to 1 | 1 to 10 | C#CCNC(=O)c1cccnc1NCc1cc(OC(C)C)cc(-c2c[nH]c3ncc(C(=O)NC4CC4)cc23)c1 [Example 4.1.16, N-cyclopropyl-3-[3-(propan-2-yloxy)-5-({[3-(prop-2-yn-1-ylcarbamoyl)pyridin-2-yl]amino}methyl)phenyl]-1H-pyrrolo[2,3-b] pyridine-5-carboxamide] |
| < 0.1 | < 1 | Nc1ncnc2ccc(-c3ccc(CNc4ncccc4C(=O)NCc4ccc(F)c(F)c4)s3)cc12 [Example 4.4, 2-(((5-(4-aminoquinazolin-6-yl)thiophen-2-yl)methyl)amino)-N-(3,4-difluorobenzyl)nicotinamide] |
| < 0.1 | > 10 | O=C(NCc1ccc(F)c(F)c1)c1cccnc1NCc1ccc(-c2ccc3ncccc3c2)s1 [Example 4.5, N-(3,4-difluorobenzyl)-2-(((5-(quinolin-6-yl)thiophen-2-yl)methyl)amino)nicotinamide] |
| 0.1 to 1 | 1 to 10 | O=C(NCc1ccc(F)c(F)c1)c1cccnc1NCc1ccc(-c2c[nH]c3ncncc23)s1 [Example 4.7, 2-(((5-(7H-pyrrolo[2,3-d]pyrimidin-5-yl)thiophen-2-yl)methyl)amino)-N-(3,4-difluorobenzyl)nicotinamide] |
| < 0.1 | < 1 | Nc1ncnc2[nH]cc(-c3ccc(CNc4ncccc4C(=O)NCc4ccc(F)c(F)c4)s3)c12 [Example 4.8, 2-(((5-(4-amino-7H-pyrrolo[2,3-d]pyrimidin-5-yl)thiophen-2-yl)methyl)amino)-N-(3,4-difluorobenzyl)nicotinamide] |
| < 0.1 | 1 to 10 | O=C(NCc1ccc(F)c(F)c1)c1cccnc1NCc1ccc(-c2ccc3ncnc(N4CCC4)c3c2)s1 [Example 4.9, 2-(((5-(4-(azetidin-1-yl)quinazolin-6-yl)thiophen-2-yl)methyl)amino)-N-(3,4-difluorobenzyl)nicotinamide] |
| < 0.1 | 1 to 10 | O=C(NCc1ccc(F)c(F)c1)c1cccnc1NCc1ccc(-c2ccc3ncnc(NC4CC4)c3c2)s1 [Example 4.10, 2-(((5-(4-(cyclopropylamino)quinazolin-6-yl)thiophen-2-yl)methyl)amino)-N-(3,4-difluorobenzyl)nicotinamide] |
| < 0.1 | > 10 | O=C(NCc1ccc(F)c(F)c1)c1cccnc1NCc1ccc(-c2ccc3ncnc(N4CCOCC4)c3c2)s1 [Example 4.11, N-(3,4-difluorobenzyl)-2-(((5-(4-morpholinoquinazolin-6-yl)thiophen-2-yl)methyl)amino)nicotinamide] |
| < 0.1 | 1 to 10 | CC(C)Nc1ncnc2ccc(-c3ccc(CNc4ncccc4C(=O)NCc4ccc(F)c(F)c4)s3)cc12 [Example 4.12, N-(3,4-difluorobenzyl)-2-(((5-(4-(isopropylamino)quinazolin-6-yl)thiophen-2-yl)methyl)amino)nicotinamide] |
| 0.1 to 1 | > 10 | O=C(NCc1ccc(F)c(F)c1)c1cccnc1NCc1ccc(-c2ccc3ncnc(NCCN4CCCC4)c3c2)s1 [Example 4.20, N-(3,4-difluorobenzyl)-2-(((5-(4-(2-(pyrrolidin-1-yl)ethylamino)quinazolin-6-yl)thiophen-2-yl)methyl)amino)nicotinamide] |
| > 5 | > 10 | CN(c1ncnc2ccc(-c3ccc(CNc4ncccc4C(=O)NCc4ccc(F)c(F)c4)s3)cc12)C1CCCCC1 [Example 4.21, 2-(((5-(4-(cyclohexyl (methyl)amino)quinazolin-6-yl)thiophen-2-yl)methyl)amino)-N-(3,4-difluorobenzyl) nicotinamide] |
| 0.1 to 1 | 1 to 10 | O=C(NCc1ccc(F)c(F)c1)c1cccnc1NCc1ccc(-c2ccc3ncnc(NCC(F)(F)F)c3c2)s1 [Example 4.22, N-(3,4-difluorobenzyl)-2-(((5-(4-(2,2,2-trifluoroethylamino)quinazolin-6-yl)thiophen-2-yl)methyl)amino)nicotinamide] |
| 1 to 5 | > 10 | CC(C)(C)Nc1ncnc2ccc(-c3ccc(CNc4ncccc4C(=O)NCc4ccc(F)c(F)c4)s3)cc12 [Example 4.23, N-(3,4-difluorobenzyl)-2-(((5-(4-(tert-butylamino)quinazolin-6-yl)thiophen-2-yl)methyl)amino) nicotinamide] |
| < 0.1 | 1 to 10 | CNc1ncnc2ccc(-c3ccc(CNc4ncccc4C(=O)NCc4ccc(F)c(F)c4)s3)cc12 [Example 4.24, N-(3,4-difluorobenzyl)-2-(((5-(4-(methylamino)quinazolin-6-yl)thiophen-2-yl)methyl)amino)nicotinamide] |
| > 5 | > 10 | CNC(=O)c1ncnc2ccc(-c3ccc(CNc4ncccc4C(=O)N[C@@H](C)c4ccc(F)c(F)c4)s3)cc12 [Example 4.25, (S)-6-(5-((3-(1-(3,4-difluorophenyl)ethyl-carbamoyl)pyridin-2-ylamino)methyl)thiophen-2-yl)-N-methylquinazoline-4-carboxamide] |
| > 5 | > 10 | C[C@H](NC(=O)c1cccnc1NCc1ccc(-c2ccc3ncc(-n4cccn4)nc3c2)s1)c1ccc(F)c(F)c1 [Example 4.26, (S)-2-(((5-(3-(1H-pyrazol-1-yl)quinoxalin-6-yl)thiophen-2-yl)methyl)amino)-N-(1-(3,4-difluorophenyl)ethyl)nicotinamide] |
